Measured values from patent EP0406122A1, “Process for obtaining a native, wild-type human oestrogen receptor and its applications” (ASSOCIATION POUR LE DEVELOPPEMENT DE LA RECHERCHE EN …, priority 1989, dated 1991).

Biological target: T1, hER Gly-400 (HEGO) (Homo sapiens, UniProt P03372)
T1 construct: expressed in transfected cells; host or cells: HeLa
T1 sequence (P03372 1-595): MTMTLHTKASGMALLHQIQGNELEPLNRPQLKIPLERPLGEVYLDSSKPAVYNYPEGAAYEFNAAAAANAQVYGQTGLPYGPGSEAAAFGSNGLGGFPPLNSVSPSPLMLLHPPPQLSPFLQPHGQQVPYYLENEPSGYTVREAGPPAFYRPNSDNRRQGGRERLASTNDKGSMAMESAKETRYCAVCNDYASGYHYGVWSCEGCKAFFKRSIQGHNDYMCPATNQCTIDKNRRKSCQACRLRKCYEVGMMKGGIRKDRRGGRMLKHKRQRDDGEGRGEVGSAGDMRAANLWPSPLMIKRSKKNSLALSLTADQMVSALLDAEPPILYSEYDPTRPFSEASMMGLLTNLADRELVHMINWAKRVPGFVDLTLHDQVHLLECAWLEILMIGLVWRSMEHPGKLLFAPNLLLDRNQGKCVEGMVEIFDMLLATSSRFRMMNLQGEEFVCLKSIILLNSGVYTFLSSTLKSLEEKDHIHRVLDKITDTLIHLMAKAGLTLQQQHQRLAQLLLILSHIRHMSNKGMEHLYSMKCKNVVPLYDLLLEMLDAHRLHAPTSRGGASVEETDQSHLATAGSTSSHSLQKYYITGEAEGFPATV
Experiment: transcription activation, vit-tk-CAT reporter in HeLa cells transfected with HEGO
Assay type: cell-based, humain
Settings: 10⁻⁷ M ICI 164,384 in the presence of 10⁻⁸ M oestradiol, CAT activity
Method: On a transfecté des cellules Hela avec 50 ng de vecteurs d'expression de Er humain ou de Er de poulet comme indiqué, conjointement avec 1 µg de plasmide "reporter" vit-tk-cat, et le plasmide pCH 110 de contrôle interne de l'expression de la béta-galactosidase (3µg) et de l'ADN transporteur (Bluescribe M13+) pour un total de 20 µg d'ADN.
• A) Des cellules HeLa ont été transfectées avec 10 ng des vecteurs d'expression de l'hER correspondant, HEO (colonnes 1-5), ou HEGO (colonnes 6-10), conjointement avec 1 µG de plasmide "reporter" vit-tk-CAT, 3 µG du plasmide de contrôle de la béta-galactosidase pCH110 et avec de l'ADN Bluescribe M13+ pour un total d'ADN de 20 µg. […] 2 heures plus tard on a récolté les cellules […] et un dosage de la béta-galactosidase a été effectué.

Structure (SMILES): CCCCN(C)C(=O)CCCCCCCCCC[C@@H]1Cc2cc(O)ccc2[C@H]2CC[C@]3(C)[C@@H](O)CC[C@H]3[C@H]12 [ICI 164,384]
- effet sur l'induction à l'oestradiol: très peu d'effet
